As usually defined, the MIC is the smallest concentration in the dilution series that meets the test's criterion for growth inhibition. The term logD denotes lipophilicity at a set pH, counting ionised and neutral species. Low readings indicate lower lipophilicity, high ones higher lipophilicity. As a reminder, the IC50 is the concentration at which inhibition is half-maximal. The fraction unbound is the share of the substance not bound to proteins or other matrix. Read a low fraction unbound as extensive binding. The half-life is the time in which the quantity being followed falls by half. A lower half-life goes with fast loss.

Consider six compounds from US12383548B2, “Antibacterial quinolines” (priority 2019, dated 2025).

Data set [1] has as its system susceptible H37Rv M. tuberculosis, strain ATCC 25618. As to the kind of experiment: Mycobacterium tuberculosis susceptibility assay REMA (resazurin microtiter assay). Format: cell-based. To be noted: Mycobacterium tuberculosis, 144 h, MTB growth, H37Rv, 6 days at 37° C., Middlebrook 7H9, read-out: REMA MIC.
A short description of a further data set: physchem. To be noted: pH 7.4. The data set is classed as physicochemical. Here is the method: The solution was allowed to mix in a rotator for 1 hour at 30 rpm.
The next data set concerns HepG2 cell line. As to the kind of experiment: in vitro cytotoxicity assay (MTS tetrazolium reduction, cell viability). The data set is classed as cell-based. The following applies: Homo sapiens, HepG2, 48 h, MTS, read-out: IC50. As for the experimental part: In an embodiment, the in vitro cytotoxicity assay was carried out as follows. […] The assay was performed in 96 well plates for 48 h at 37° C. and 5% CO2 in incubation medium (low glucose DMEM with Glutamax, 10% FBS, 1% Pen/Strep and DMSO). Cells were exposed to 8 different compound concentrations in successive dilutions (usually, base 2), plus a positive control (a compound in a concentration known to decrease cell viability above 50%) and a negative control (incubation medium). Six replicate wells were assayed for each condition. Compound stock solutions were prepared in DMSO at 20 mM, whenever possible, filter sterilized, aliquoted and stored at −20° C. The maximum compound concentrations tested depend on its solubility in incubation medium, and on the maximum DMSO percentage allowable without loss of cell viability. At the end of the incubation period, tetrazolium reagent was added (CellTiter 96® AQueous Solution from Promega); cells were incubated for another 3 hours in order to promote tetrazolium reduction to formazan by viable cells. The amount of soluble formazan produced was evaluated by 490 nm absorbance reading in a spectrophotometer plate reader.
Background: Tetrazolium dyes change colour on reduction, which living cells bring about.

Data set [2] can be described thus: in vitro. Format: in vitro ADME. The following applies: human, plasma, pH 7.4.
Protocol: The assay was performed in a multiple-use 96-well dialysis unit (HTD96b dialyzer). […] 120 μl of non-diluted plasma spiked with the compound (1 μM, 1% final DMSO concentration) was added to one chamber and the same volume of phosphate buffer saline pH 7.4 to the other chamber. HTD96b dialyzer was covered with adhesive sealing film and incubated at 37° C. and 100 rpm orbital shaking for 5 hours. […] For sample preparation, an aliquot of the content of each chamber was mixed with the same volume of the blank opposite matrix. In order to define non-specific loss of the compound during this assay, standard solution was created by mixing an aliquot of spiked plasma with blank buffer without dialysis. Samples were diluted 10-fold with 100% acetonitrile with subsequent plasma proteins sedimentation by centrifugation. Supernatants were analysed using a Shimadzu VP HPLC system with a reverse phase column, coupled with a tandem mass spectrometer API 3000 (PE Sciex). The both positive and negative ion modes of the TurbolonSpray ion source were used. […]
The percentage of plasma protein bounded compound and its recovery were calculated using the equations below:
The percentage of plasma protein bounded compound and its recovery were calculated using the values obtained for each compound in the quantification of the 3 samples (in buffer, plasma and standard solution).
Data set [3] is described as follows: in vitro. The data set is classed as in vitro ADME. To be noted: human, plasma. Here is the method:
The percentage of the test compounds remaining after incubation in plasma and their half-lives (T1/2) were calculated.

Structures are written as SMILES. In brackets after ≈: the same amount, converted by molar mass. Where two headings read alike, the source gives them in different places.

In the case of `CCOC(=O)C1CCN(c2ccc3cc(-c4cccc(O)c4)ccc3n2)CC1` [Compound 26, ethyl 1-(6-(3-hydroxyphenyl)quinolin-2-yl)piperidine-4-carboxylate], the MIC in data set [1] (Table 1) and in data set [1] (Table 2) was under 7.8 µM throughout. Moreover, in the data set “physchem”, the logD is over 4.5. Also, the IC50 was over 100 µM in the data set on HepG2 cell line (Table 1, cytotoxicity) and over 100 µM with HepG2 cell line (Table 2, cytotoxicity). In addition, the free fraction (fraction unbound) at 5 h, 1 μM in “in vitro [2]” is at most 0.01. Further, the half-life at 1 μM in “in vitro [3]” was over 2 h.

On to `CCOC(=O)C1CCN(c2ccc3cc(-c4ccnc(F)c4)ccc3n2)CC1` [Compound 37, ethyl 1-(6-(2-fluoropyridin-4-yl)quinolin-2-yl)piperidine-4-carboxylate], for which the MIC in data set [1] (Table 1) was 7.8 to 15.6 µM (≈ 2.96 to 5.92 µg/mL). In addition, the IC50 with HepG2 cell line (Table 1, cytotoxicity) is 50 to 100 µM.

Turning to `CCOC(=O)C1CCN(c2ccc3cc(-c4ccnc(C)c4)ccc3n2)CC1` [Compound 40, ethyl 1-(6-(2-methylpyridin-4-yl)quinolin-2-yl)piperidine-4-carboxylate], in data set [1] (Table 1), the MIC lay within 7.8 to 15.6 µM (≈ 2.93 to 5.86 µg/mL). The IC50 with HepG2 cell line (Table 1, cytotoxicity) is 20 to 50 µM.

Consider `CCOC(=O)C1CCN(c2ccc3cc(-c4cc(OC)cc(OC)c4)ccc3n2)CC1` [Compound 41, ethyl 1-(6-(3,5-dimethoxyphenyl)quinolin-2-yl)piperidine-4-carboxylate], for which the MIC in data set [1] (Table 1) lay within 7.8 to 15.6 µM (≈ 3.28 to 6.56 µg/mL). Moreover, the IC50 in the data set on HepG2 cell line (Table 1, cytotoxicity) is 50 to 100 µM.

Take `CCOC(=O)C1CCN(c2ccc3cc(-c4ccc5[nH]ccc5c4)ccc3n2)CC1` [Compound 42, ethyl 1-(6-(1H-indol-5-yl)quinolin-2-yl)piperidine-4-carboxylate]: the MIC in data set [1] (Table 1) lay within 7.8 to 15.6 µM (≈ 3.12 to 6.23 µg/mL). Besides, the IC50 in the data set on HepG2 cell line (Table 1, cytotoxicity) was in the range of 20 to 50 µM.

With `CCOC(=O)C1CCCN(c2ccc3cc(-c4ccncc4)ccc3n2)C1` (centres unmarked) [Compound 54, ethyl 1-(6-(pyridin-4-yl)quinolin-2-yl)piperidine-3-carboxylate], the MIC in data set [1] (Table 1) lay within 7.8 to 15.6 µM (≈ 2.82 to 5.64 µg/mL). Moreover, the IC50 in the data set with HepG2 cell line (Table 1, cytotoxicity) was over 100 µM.
